This note sets out measurements from ChEMBL document CHEMBL3507680, “University of Dundee, Gates Library screen for HepG2 cell viability”.

This series is described as follows: Human HepG2 cell viability assay in 384 well format. The format is toxicity, cell-based. More on the design: dose 125 nL, time 70.5 hour; cytotoxicity at 70.5 h: concentration not given beside the values. To be noted: HepG2 cells, read-out: Inhibition.

On to `O=C(NCC1CC2(CO1)CN(c1nncs1)C2)C1CCC1` (stereo not given), for which the cytotoxicity at 70.5 h was -3.65%.
Under `Cc1ccc(N2CCc3ncnc(N(C)C)c3CC2)nn1` stands -6.25%; under `COCC1c2nnn(C)c2CCN1C(=O)COc1ccccc1C` (stereo not given), -4.54%.
To `COC1COC2(CCN(C(=O)c3ccc4ccccc4c3)CC2)C1` (stereo not given) belongs -4.73%; to `COc1ncccc1CN1Cc2nccn2CC(CN2CCCC2)C1` (stereo not given), -2.53%.
Under `COc1ncccc1CN1Cc2nccn2CC(Cn2cccn2)C1` (stereo not given) stands -5.37%; under `Cc1cc(CN2CC[C@H]3C[C@H](c4nc(C5CC5)cs4)O[C@@H]3C2)no1`, -4.1%.
Turning to `COCCN1C(=O)CC[C@@H]2[C@@H]1CCN2S(=O)(=O)C1CC1`, the cytotoxicity at 70.5 h is -3.21%.
To `CCS(=O)(=O)N1CC[C@@H]2[C@H]1CCC(=O)N2CCOC` belongs -3.05%; to `CCOCC(=O)N1C[C@@H]2COC[C@]2(c2nc(C)no2)C1`, -7.6%; to `Cc1cc(CN2CC[C@@H]3O[C@@H](c4nnc(C)o4)C[C@H]3C2)no1`, -3.3%.
Under `COc1cc(N2CC[C@@H]3OCCN(C)[C@H]3CC2)ncn1` stands -5.78%.
To `COCCN1CC[C@@H]2OC[C@H](C(=O)N(C)Cc3ccccn3)C[C@@H]2C1` belongs -3.83%; to `COC1COC2(CCN(C(=O)c3ccccc3F)CC2)C1` (stereo not given), -4.84%.
Consider `Cn1c2c(ccc1=O)CC(NC(=O)c1ccsc1)CC2` (stereo not given), for which the cytotoxicity at 70.5 h was -2.29%.
To `COc1cccc(CC(=O)N2CC[C@@H]3CN(C)S(=O)(=O)[C@@H]3CC2)c1` belongs -3.48%.
Under `Cc1cccc(CN2CC[C@@H]3O[C@@H](C(=O)N4CCN(C)CC4)C[C@@H]32)n1` stands -1.64%; under `COCCNC(=O)C[C@@H]1COC[C@H]2CN(Cc3cccnc3)C[C@@H]12`, -0.897%; under `COCCC(=O)N1C[C@H]2CCC[C@@]2(COC)C1`, -6.36%.
To `Cc1cccc(CN2CC[C@@H]3O[C@@H](C(=O)N4CCN(C)CC4)C[C@@H]32)c1` belongs -6.66%.
`CCn1nc(C)cc1C(=O)N1C[C@@H]2C[C@@H](c3noc(C)n3)O[C@@H]2C1`: the cytotoxicity at 70.5 h is -6.34%.
Under `c1c(CN2CCOCC2)nc2n1CCN(C1CCOCC1)C2` stands -1.69%; under `CC(C)CNC(=O)C1=NOC2(CCN(Cc3cccc(C#N)c3)C2)C1` (stereo not given), -1.8%; under `c1ccc(C[C@H]2CN(Cc3nccs3)CC[C@H]2OCC2CC2)cc1`, -11.5%.
Regarding `COCCn1c2c(ccc1=O)CC(NS(C)(=O)=O)CC2` (stereo not given), the cytotoxicity at 70.5 h is 16%.
To `CC(C)Nc1nc(N2CCOCC2)nc2c1CN(CC(=O)N(C)C)CC2` belongs 26.3%; to `O=C(N1CCCC1)N1CCN(CC2CC2)c2ncccc2C1`, 6.34%.
To `c1ccc(OC[C@H]2CCC[C@]23CN(Cc2nccs2)CCO3)nc1` belongs -4.23%; to `CC(=O)N1CCn2cc(CNC(=O)c3cccn3C)nc2C1`, -10.7%.
To `CCOC[C@@H]1CCC[C@@]12CN(Cc1nccs1)CCO2` belongs 0.476%; to `COCCC1COC2(CCN(C(=O)c3ccco3)CC2)C1` (stereo not given), -5.74%.
Turning to `CC(C)Oc1ncnc2c1CCN(C(=O)c1cccn1C)CC2`, the cytotoxicity at 70.5 h was 7.42%.
On to `CC(=O)N1CCC2(CCCN(C(=O)c3ccccc3)C2)C1` (stereo not given), for which the cytotoxicity at 70.5 h was 6.68%.
With `O=C(N1CCCC1)N1CCc2ncnc(C3CCOC3)c2CC1` (stereo not given), the cytotoxicity at 70.5 h was -9.08%.
For the compound `COCCC(=O)N1CCC2(COCc3c(C)nc(NCC4CC4)nc32)C1` (stereo not given), the cytotoxicity at 70.5 h is -4.97%.
As to `O=C(CC1CC1)N1CCC2(CC1)CN(c1ncccn1)CCO2`, the cytotoxicity at 70.5 h is -7.66%.
As to `Cc1ncsc1CN1CC[C@H]2C(=O)N(c3ccccc3)CCO[C@H]2C1`, the cytotoxicity at 70.5 h is -9.01%.
To `CS(=O)(=O)NCc1cn2c(n1)CN(C(=O)c1ccc[nH]1)CC2` belongs -9.01%; to `CC(=O)N1CCO[C@@H]2CN(Cc3ccccc3Cl)C[C@@H]2C1`, -5.68%; to `Cc1noc([C@]23COC[C@H]2CN(C(=O)CN(C)C)C3)n1`, -4.74%.
As to `CC(C)C(=O)N1CCCC2(C1)CN(c1nncs1)CCO2` (stereo not given), the cytotoxicity at 70.5 h is -2.65%.
Under `COCCN1CCCCC12CC(=O)N(c1cccc(C#N)c1)C2` (stereo not given) stands -4.04%; under `Cn1cncc1CN1CCC2(CC1)COCCN(S(C)(=O)=O)C2`, -8.74%; under `CCC(=O)N1CCC2(CC1)C(=O)N(C)CCN2Cc1csc(C)n1`, -4.08%.
Under `O=C([C@H]1CC[C@@H]2[C@@H](CCN2C2CCCC2)O1)N1CCOCC1` stands -12.8%.
With `c1csc(CN2CCn3c(Cn4cncn4)cnc3C2)n1`, the cytotoxicity at 70.5 h is -17.2%.
To `COCCC(=O)N1CC2(CCN(Cc3cccc(Cl)c3)CC2)C1` belongs -8.68%; to `O=C(N1CCCC1)N1CCO[C@H]2[C@@H](Oc3ccccn3)CC[C@@H]21`, -6.73%.
Under `Cc1ccc(CN2CCCC3(CCN(S(C)(=O)=O)C3)C2)o1` (stereo not given) stands -10.2%.
Under `Cn1nnc2c1CCN(Cc1nccs1)C2COCc1ccccc1` (stereo not given) stands -2.36%.
In the case of `O=C(C1=CCCC1)N1CCO[C@H]2[C@@H](Oc3ccccn3)CC[C@@H]21`, the cytotoxicity at 70.5 h is -0.715%.
Regarding `Cn1cc(C[C@H]2[C@H](N3CCOCC3)CCN2C(=O)c2ccco2)cn1`, the cytotoxicity at 70.5 h was determined as 5.32%.
To `O=C(c1ccc[nH]1)N1CCn2cc(CN3CCCC3)nc2C1` belongs -8.96%; to `O=C(c1cccnc1)N1CCc2ncnc(C3CCOC3)c2CC1` (stereo not given), -7.71%.
To `Cc1cc(CN2CC[C@H]3C(=O)N(c4ccccc4)CCO[C@H]3C2)no1` belongs 23.6%; to `CN(Cc1ccccn1)C(=O)[C@H]1CO[C@H]2CCN(CC3CC3)C[C@H]2C1`, -5.92%; to `O=C(C[C@@H]1COC[C@H]2CN(C3CCC3)C[C@@H]12)NCc1cccnc1`, -16.6%.
To `C[C@H]1CN(c2ccccn2)C[C@@]12CCN(c1cccnc1)C2=O` belongs -2.67%.
`CC(C)N1CC[C@H]2[C@H](C[C@@H](Cn3cncn3)N2c2nccs2)C1`: the cytotoxicity at 70.5 h is -6.46%.
Under `c1ccc(CN2CC[C@@H]3O[C@@H](COCC4CCOCC4)CC[C@@H]32)nc1` stands -14.4%; under `O=C(NC1CCCC1)[C@@H]1CN(Cc2nccs2)C[C@H]2OCC[C@H]21`, 33.7%; under `Fc1cnc(N2CCCC3(CN(Cc4ccncc4)CCO3)C2)nc1` (stereo not given), -6.32%.
Under `O=C(NC[C@]12COC[C@H]1CN(Cc1ccncc1)C2)c1ccco1` stands -10.9%.
To `Cc1nc(CN2CCC3(CC2)C(=O)N(C)CCN3C)cs1` belongs -4.7%; to `Fc1cccc(N2CCCC3(CN(Cc4ccncc4)CCO3)C2)c1` (stereo not given), -4.69%.
